Assay results as given in PubChem BioAssay AID330 (DTP/NCI, 2004).
Several values for one entry are separate records, joined by “and”; a condition that tells them apart may be missing. Equal entries are not always repeated. Toxic doses and inconclusive results are not listed.

System: P388 leukemia ip, CD2F1 mice, survival T/C
Assay: NCI In Vivo Anticancer Drug Screen. Data for tumor model P388 Leukemia (intraperitoneal) in CD2F1 (CDF1) mice
Conditions: endpoint: median survival time, higher = longer survival
Summary of the method: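 Mice carrying the transplanted tumor received test compound or vehicle. Survival was recorded in each group, and the value is the treated-group measurement divided by that of the vehicle-treated control group.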

[1] = dose: 60.0 mg/kg/injection, schedule: Q01DX005 (ip), vehicle: saline with Tween-80
[2] = dose: 120.0 mg/kg/injection, schedule: Q01DX005 (ip), vehicle: saline with Tween-80
[3] = dose: 240.0 mg/kg/injection, schedule: Q01DX005 (ip), vehicle: saline with Tween-80
[4] = dose: 50.0 mg/kg/injection, schedule: Q01DX009 (ip), vehicle: saline
[5] = dose: 100.0 mg/kg/injection, schedule: Q04DX003 (ip), vehicle: saline with Tween-80
[6] = dose: 200.0 mg/kg/injection, schedule: Q04DX003 (ip), vehicle: saline with Tween-80
[7] = dose: 50.0 mg/kg/injection, schedule: Q01DX009 (ip), vehicle: saline with Tween-80
[8] = dose: 100.0 mg/kg/injection, schedule: Q01DX009 (ip), vehicle: saline with Tween-80
[9] = dose: 200.0 mg/kg/injection, schedule: Q01DX009 (ip), vehicle: saline with Tween-80
[10] = dose: 50.0 mg/kg/injection, schedule: Q01DX005 (ip), vehicle: Klucel (hydroxypropylcellulose) (HPC)
[11] = dose: 100.0 mg/kg/injection, schedule: Q01DX005 (ip), vehicle: Klucel (hydroxypropylcellulose) (HPC)
[12] = dose: 200.0 mg/kg/injection, schedule: Q01DX005 (ip), vehicle: Klucel (hydroxypropylcellulose) (HPC)
[13] = dose: 50.0 mg/kg/injection, schedule: Q01DX009 (ip), vehicle: Klucel (hydroxypropylcellulose) (HPC)
[14] = dose: 100.0 mg/kg/injection, schedule: Q01DX009 (ip), vehicle: Klucel (hydroxypropylcellulose) (HPC)
[15] = dose: 200.0 mg/kg/injection, schedule: Q01DX009 (ip), vehicle: Klucel (hydroxypropylcellulose) (HPC)

SMILES: O=C(Nc1ccccc1)OCC[N+](CCO)(CCO)CCO
- T/C (dose: 60.0 mg/kg/injection, schedule: Q01DX005 (ip), vehicle: water): 100 % of control
- T/C (dose: 120.0 mg/kg/injection, schedule: Q01DX005 (ip), vehicle: water): 100 % of control
- T/C (dose: 240.0 mg/kg/injection, schedule: Q01DX005 (ip), vehicle: water): 99 % of control

SMILES: O=C(NCCCl)Nc1[nH]c(=O)ncc1Cl
- T/C [1]: 103 % of control
- T/C [2]: 100 % of control
- T/C [3]: 101 % of control

SMILES: O=C1CN(CN2CCOCC2)C(=O)CN1CN1CCOCC1
- T/C (dose: 25.0 mg/kg/injection, schedule: Q01DX009 (ip), vehicle: saline): 115 % of control
- T/C [4]: 114 % of control

SMILES: Cc1ccc(N=Nc2c(C)nn(C(=S)S)c2C)cc1
- T/C (dose: 100.0 mg/kg/injection, schedule: Q04DX002 (ip), vehicle: Klucel (hydroxypropylcellulose) (HPC)): 100 % of control
- T/C (dose: 200.0 mg/kg/injection, schedule: Q04DX002 (ip), vehicle: Klucel (hydroxypropylcellulose) (HPC)): 105 % of control

SMILES: CCC(CC)C(=O)NN(C)C
- T/C (dose: 50.0 mg/kg/injection, schedule: Q01DX005 (ip), vehicle: saline): 101 % of control
- T/C (dose: 100.0 mg/kg/injection, schedule: Q01DX005 (ip), vehicle: saline): 100 % of control

SMILES: CCN(CC)CCOc1ccc(C2=C(c3ccccc3)CCc3cc(OC)ccc32)cc1
- T/C [5]: 100 % of control
- T/C [6]: 104 % of control

SMILES: CC([NH-])C[NH-].[Cl][Pt+2][Cl] (stereo not drawn)
- T/C (dose: 3.12 mg/kg/injection, schedule: Q01DX001 (ip), vehicle: Klucel (hydroxypropylcellulose) (HPC)): 157 % of control
- T/C (dose: 12.5 mg/kg/injection, schedule: Q01DX001 (ip), vehicle: Klucel (hydroxypropylcellulose) (HPC)): 163 % of control

SMILES: Cc1ccn(C(=O)C2=Cc3ccccc3OC2)c(=N)c1
- T/C (dose: 100.0 mg/kg/injection, schedule: Q04DX003 (ip), vehicle: Klucel (hydroxypropylcellulose) (HPC)): 106 % of control
- T/C (dose: 200.0 mg/kg/injection, schedule: Q04DX003 (ip), vehicle: Klucel (hydroxypropylcellulose) (HPC)): 103 % of control
- T/C (dose: 400.0 mg/kg/injection, schedule: Q04DX003 (ip), vehicle: Klucel (hydroxypropylcellulose) (HPC)): 100 % of control

SMILES: CNC(=O)OCc1onc(-c2ccccc2)c1COC(=O)NC
- T/C (dose: 12.5 mg/kg/injection, schedule: Q01DX005 (ip), vehicle: distilled water + Tween-80): 98 % of control
- T/C (dose: 25.0 mg/kg/injection, schedule: Q01DX005 (ip), vehicle: distilled water + Tween-80): 100 % of control
- T/C (dose: 50.0 mg/kg/injection, schedule: Q01DX005 (ip), vehicle: distilled water + Tween-80): 98 % of control
- T/C (dose: 100.0 mg/kg/injection, schedule: Q01DX005 (ip), vehicle: distilled water + Tween-80): 100 % of control
- T/C (dose: 200.0 mg/kg/injection, schedule: Q01DX005 (ip), vehicle: distilled water + Tween-80): 98 % of control

SMILES: COc1cccc(/C=N/NC(=O)c2c(-c3ccccc3)noc2C)c1O
- T/C [7]: 99 % of control
- T/C [8]: 100 % of control
- T/C [9]: 110 % of control

SMILES: CC(=O)Nc1cccc2c1C(=O)OC2=O
- T/C [7]: 100 % of control
- T/C [8]: 109 % of control
- T/C [9]: 108 % of control
- T/C (dose: 400.0 mg/kg/injection, schedule: Q01DX009 (ip), vehicle: saline with Tween-80): 102 % of control

SMILES: COc1ccc2c(=O)cc(-c3ccc4ccccc4n3)oc2c1OC
- T/C [10]: 98 % of control
- T/C [11]: 95 % of control
- T/C [12]: 90 % of control

SMILES: O=C(O)c1ccc(NC(=O)c2ccco2)cc1
- T/C [7]: 88 % of control
- T/C [8]: 97 % of control
- T/C [9]: 89 % of control

SMILES: CCc1nc(N)nc(N)c1-c1ccc(N(C)C2CCCCC2)c([N+](=O)[O-])c1
- T/C [1]: 105 % of control and 106 % of control
- T/C [2]: 115 % of control
- T/C [3]: 103 % of control
- T/C (dose: 480.0 mg/kg/injection, schedule: Q01DX005 (ip), vehicle: saline with Tween-80): 168 % of control

SMILES: COc1cc(/C=C/c2ccc3ccccc3n2)cc(OC)c1OC
- T/C (dose: 50.0 mg/kg/injection, schedule: Q04DX003 (ip), vehicle: saline with Tween-80): 100 % of control
- T/C [8]: 86 % of control
- T/C [5]: 100 % of control
- T/C [9]: 90 % of control
- T/C [6]: 100 % of control

SMILES: O=C(C=C(C(F)(F)Cl)C(F)(F)Cl)c1cccs1
- T/C (dose: 2.5 mg/kg/injection, schedule: Q04DX003 (ip), vehicle: saline): 95 % of control
- T/C (dose: 5.0 mg/kg/injection, schedule: Q04DX003 (ip), vehicle: saline): 100 % of control
- T/C (dose: 10.0 mg/kg/injection, schedule: Q04DX003 (ip), vehicle: saline): 100 % of control

SMILES: CCOC(=O)/C=C(\C)NC(C)=NC(C)(C)C
- T/C [4]: 93 % of control
- T/C (dose: 100.0 mg/kg/injection, schedule: Q01DX009 (ip), vehicle: saline): 89 % of control

SMILES: CC(=O)OC1C2CC(Cl)C1C2 (stereo not drawn)
- T/C [7]: 100 % of control
- T/C [8]: 109 % of control
- T/C [9]: 105 % of control

SMILES: CC(C)(C)OC(=O)NC1CCC2CCCCC2C1 (stereo not drawn)
- T/C (dose: 100.0 mg/kg/injection, schedule: Q04DX003 (ip), vehicle: saline): 100 % of control
- T/C (dose: 200.0 mg/kg/injection, schedule: Q04DX003 (ip), vehicle: saline): 104 % of control
- T/C (dose: 400.0 mg/kg/injection, schedule: Q04DX003 (ip), vehicle: saline): 100 % of control

SMILES: CC(C)(C)CC(C)(C)NCC(O)COc1ccc(C(C)(C)c2ccc(OCC(O)CNC(C)(C)CC(C)(C)C)cc2)cc1 (stereo not drawn)
- T/C (dose: 3.13 mg/kg/injection, schedule: Q01DX009 (ip), vehicle: other): 104 % of control
- T/C (dose: 3.13 mg/kg/injection, schedule: Q04DX003 (ip), vehicle: other): 108 % of control
- T/C (dose: 6.25 mg/kg/injection, schedule: Q01DX009 (ip), vehicle: other): 90 % of control
- T/C (dose: 6.25 mg/kg/injection, schedule: Q04DX003 (ip), vehicle: other): 100 % of control

SMILES: CN(C)c1ccc2c(SCC(=O)Nc3ccc(NS(C)(=O)=O)cc3)c3ccc(N(C)C)cc3nc2c1
- T/C [10]: 115 % of control
- T/C [11]: 117 % of control
- T/C [12]: 114 % of control

SMILES: CCN(CC)C(=O)C(F)C(F)(F)C(F)(F)C(F)(F)C(F)(F)C(F)(F)C(F)(F)F (stereo not drawn)
- T/C [13]: 102 % of control
- T/C [14]: 101 % of control
- T/C [15]: 99 % of control

SMILES: O=[N+]([O-])O.O=[N+]([O-])O.[NH-]C1CCCC1[NH-].[Pt+2] (stereo not drawn)
- T/C (dose: 6.25 mg/kg/injection, schedule: Q04DX002 (ip), vehicle: saline): 180 % of control
- T/C (dose: 12.5 mg/kg/injection, schedule: Q04DX002 (ip), vehicle: saline): 180 % of control
- T/C (dose: 12.5 mg/kg/injection, schedule: Q04DX002 (ip), vehicle: suspension in saline): 184 % of control
- T/C (dose: 25.0 mg/kg/injection, schedule: Q04DX002 (ip), vehicle: saline): 197 % of control
- T/C (dose: 25.0 mg/kg/injection, schedule: Q04DX002 (ip), vehicle: suspension in saline): 202 % of control

SMILES: Cn1cccc1C1NC(=O)C(c2cccn2C)NC1=O (stereo not drawn)
- T/C [10]: 95 % of control
- T/C [11]: 96 % of control
- T/C [12]: 92 % of control

SMILES: CCOC(=O)[C]1([Sn]([CH3])([CH3])[CH3])N=NC(C(=O)OC)=C1C(=O)OC (stereo not drawn)
- T/C (dose: 0.78 mg/kg/injection, schedule: Q01DX009 (ip), vehicle: saline): 98 % of control
- T/C (dose: 1.56 mg/kg/injection, schedule: Q01DX009 (ip), vehicle: saline): 89 % of control

SMILES: CCOc1nc2ccccc2nc1OCC
- T/C [10]: 95 % of control
- T/C [11]: 104 % of control

SMILES: COc1cc2c(OC)cc1CCCC(=O)CCCc1cc(OC)c(cc1OC)CCCC(=O)CCC2
- T/C (dose: 50.0 mg/kg/injection, schedule: Q01DX005 (ip), vehicle: saline with Tween-80): 100 % of control
- T/C (dose: 100.0 mg/kg/injection, schedule: Q01DX005 (ip), vehicle: saline with Tween-80): 98 % of control
- T/C (dose: 200.0 mg/kg/injection, schedule: Q01DX005 (ip), vehicle: saline with Tween-80): 92 % of control

SMILES: CN1C(=O)CC(Sc2ccccc2)c2ccccc21 (stereo not drawn)
- T/C (dose: 25.0 mg/kg/injection, schedule: Q01DX009 (ip), vehicle: saline with Tween-80): 96 % of control
- T/C [7]: 97 % of control
- T/C [8]: 93 % of control

SMILES: COc1ccc2nc(CC(C)C)c3c(c2c1)-c1ccccc1C3=O
- T/C [10]: 91 % of control
- T/C [11]: 87 % of control
- T/C [12]: 89 % of control

SMILES: CCCOC(CN(C)C)C(Cl)(Cl)Cl (stereo not drawn)
- T/C [13]: 101 % of control
- T/C [14]: 104 % of control
- T/C [15]: 100 % of control

SMILES: Oc1cc(O)cc(/C=C/c2ccccc2)c1
- T/C (dose: 50.0 mg/kg/injection, schedule: Q01DX005 (ip), vehicle: water): 107 % of control
- T/C (dose: 100.0 mg/kg/injection, schedule: Q01DX005 (ip), vehicle: water): 101 % of control
